According to PMC9837764 (Nature Communications, 2023):
“And” between values parts separate entries of the source, which are not always exact repeats. Identical values can stand only once.

Columns and labels:
[1] = tested on: mouse bone marrow erythrocytes; settings: Positive Control 25 mg/Kg i.p.
[2] = human, in vivo; cited from earlier work
SARS-CoV-2 [3] = experiment: Combination of RdRp inhibitors with SARS-CoV-2 nsp14 inhibitors in infected Calu-3 cells, synergy; assay type: cell-based; set-up: EC99 mean: unit not given here; settings: for Response (Fig3C source data for synergy analysis): MB-905 0 nM; for EC50: Severe acute respiratory syndrome coronavirus 2, Calu-3, read-out: EC50 mean
IL-6 = IL-6 in supernatant of SARS-CoV-2-infected human primary monocytes; assay type: cell-based; settings: infected monocytes, drugs at 10 µM, 24 h
Method: (§1) Human primary monocytes were obtained after 3 h of plastic adherence of peripheral blood mononuclear cells (PBMCs). The use of primary human cell was approved by Institutional Review Board from the Oswaldo Cruz Foundation under protocol 49971421.8.0000.5248 with signed informed consent in accordance with the Hemotherapy Service of Hospital Clementino Fraga from the Federal University of Rio de Janeiro. All volunteers were de-identified. PBMCs were isolated from healthy donors by density gradient centrifugation (Ficoll-Paque, GE Healthcare). PBMCs (2.0 × 10^6 cells) were plated onto 48-well plates (NalgeNunc) in RPMI-1640 without serum for 2–4 h. Nonadherent cells were removed, and the remaining monocytes were maintained in DMEM with 5% human serum (HS; Millipore) and penicillin/streptomycin. The purity of human monocytes was above 95%, as determined by flow cytometric analysis (FACScan; Becton Dickinson) using anti-CD3 (BD Biosciences, cat # 555342, 1:40), anti-CD16 (Southern Biotech, cat # 561313, 1:20) and APC mouse IgG2a isotype (BD Biosciences, cat # 550882, 1/40) and PE mouse IgG1 isotype (BD Biosciences, 555749, 1/20).

SARS-CoV-2 [4] = experiment: Yield-reduction assay, SARS-CoV-2 in Calu-3 cells (titers as PFU/mL in Vero cells); settings: for Inhibition of SARS-CoV-2 infectious titers (Fig1B source data, replicates): additional treatment at 24 h; for Inhibition of SARS-CoV-2 infectious titers (Fig1A source data, replicates): one treatment
SARS-CoV-2 [5] = experiment: Genomic and subgenomic viral RNA in infected Calu-3 cells (RT-PCR); assay type: cell-based; settings: Calu-3, 10 µM, 48 h
TNF-α = TNF-α in supernatant of SARS-CoV-2-infected human primary monocytes; assay type: cell-based; settings: infected monocytes, drugs at 10 µM, 24 h
Method: as §1

in vitro = settings: human
Method: (§2) Monolayers of 1.5 × 10^4 cells in 96-well plates were treated for 3 days with various concentrations (semilog dilutions from 1000 to 10 µM) of the antiviral drugs. Then, 5 mg/ml 2,3-bis-(2-methoxy-4-nitro-5-sulfophenyl)−2H-tetrazolium-5-carboxanilide (XTT) in DMEM was added to the cells in the presence of 0.01% N-methyl dibenzopyrazine methyl sulfate (PMS).

SARS-CoV-2 [6] = experiment: Cell-associated virus RNA in SARS-CoV-2-infected human primary monocytes; assay type: cell-based; settings: for Cell-associated virus RNA levels in SARS-CoV-2-infected monocytes: Fig. 1c; for Cell-associated virus RNA loads, inhibition (Fig1C source data, per donor): monocytes
Method: as §1
Total viral RNA from a culture supernatant and/or monolayers was extracted using QIAamp Viral RNA (Qiagen®) according to the manufacturer’s instructions. Quantitative RT‒PCR was performed using GoTaq® Probe qPCR and RT-qPCR Systems (Promega) in a StepOne™ Real-Time PCR System (Thermo Fisher Scientific) ABI PRISM 7500 Sequence Detection System (Applied Biosystems). Amplifications were carried out in 25 µL reaction mixtures containing 2× reaction mix buffer, […] of each primer, 10 µM of probe, and 5 µL of RNA template. Primers, probes, and cycling conditions recommended by the Centers for Disease Control and Prevention (CDC) protocol were used to detect SARS-CoV-2[52]. The standard curve method was employed for virus quantification. For reference to the cell amounts used, the housekeeping gene RNAse P (F-5′-[…] -3′, R-5′[…] -3′, P-5′-FAM-[…] -BHQ-1-3′) was amplified. The Ct values for this target were compared to those obtained for different cell amounts, 10^7 to 10^2, for calibration.

Calu-3 cells = settings: human
Method: as §2

Human primary monocytes = experiment: Monocyte viability (LDH in supernatant); assay type: cell-based; settings: 10 µM
Description: Cellular Viability (%) Remdesivir
Supplementary Fig. 3. Citotoxicity of the compounds.
DMEM containing 2% fetal bovine serum.
Monocytes at a density of 1.5

[7] = infected Calu-3, compound alone at 10 uM
[8] = Severe acute respiratory syndrome coronavirus 2, Calu-3
[9] = Severe acute respiratory syndrome coronavirus 2, Calu-3, 24 h
[10] = Drug 0.001, Calu-3, MOI 0.1, 48 h

O=P1(N(CCCl)CCCl)NCCCO1 (stereo not shown) [Cyclophosphamide, reference compound]
MNPCE/4,000 PCE (Mean ± S.D.) [1]: 16.20 ± 6.03 | Ratio PCE/NCE (Mean ± S.D.) [1]: 1.44 ± 0.29

C[C@@H]1CCO[C@H]2Cn3cc(C(=O)NCc4ccc(F)cc4F)c(=O)c(O)c3C(=O)N12 [DTG, dolutegravir]
Cmax [2]: 15 µM | Plasma concentration at Cmin [2]: 1.5 µM | Response (Fig3C source data for synergy analysis) (SARS-CoV-2 [3]; DTG 1000 nM): 14 | Response (Fig3C source data for synergy analysis) (SARS-CoV-2 [3]; DTG 5000 nM): 53 | Response (Fig3C source data for synergy analysis) (SARS-CoV-2 [3]; DTG 10000 nM): 74 | Response (Fig3C source data for synergy analysis) (SARS-CoV-2 [3]; DTG 15000 nM): 75 | EC50 (SARS-CoV-2 [3]): 5.3 µM | Effects on SARS-CoV-2 replication (SARS-CoV-2 [3]; alone at 5 µM, Calu-3): marginal effects | Virus productive titers (Fig3B source data, replicates) (SARS-CoV-2 [3]; infected Calu-3, DTG alone at 5uM): 224000 and 448000

OC[C@H]1O[C@@H](n2cnc3c(NCc4ccco4)ncnc32)[C@H](O)[C@@H]1O [MB-801, Kinetin riboside]
Virus productive titers (Fig3A source data, replicates) (SARS-CoV-2 [3]; [7]): 32000 and 36000 and 38000 | Virus productive titers (Fig3B source data, replicates) (SARS-CoV-2 [3]; [7]): 32000 and 36000 and 38000 | IL-6 levels in the culture supernatant (Fig1E source data, per donor) (IL-6): 2.2 and 1.8 and 0.121 and 4.3 and 3.4 and 0.355 and 1.5 and 2.9 | EC50 (SARS-CoV-2 [4]; [8]): 180 ± 20 nM | EC50 (SARS-CoV-2 [4]; [9]): 20 ± 3 nM | Inhibition of SARS-CoV-2 infectious titers (Fig1B source data, replicates) (SARS-CoV-2 [4]; Drug 0.001, Calu-3, 48 h): 18 and 20 and 16 | Inhibition of SARS-CoV-2 infectious titers (Fig1B source data, replicates) (SARS-CoV-2 [4]; Drug 0.01): 39 and 40 and 54 | Inhibition of SARS-CoV-2 infectious titers (Fig1B source data, replicates) (SARS-CoV-2 [4]; Drug 0.1): 62 and 60 and 58 | Inhibition of SARS-CoV-2 infectious titers (Fig1B source data, replicates) (SARS-CoV-2 [4]; Drug 1): 81 and 86 and 58 | Inhibition of SARS-CoV-2 infectious titers (Fig1B source data, replicates) (SARS-CoV-2 [4]; Drug 10): 98 (2×) and 99 | Inhibition of SARS-CoV-2 infectious titers (Fig1A source data, replicates) (SARS-CoV-2 [4]; [10]): 2 and 4 and 5 | Inhibition of SARS-CoV-2 infectious titers (Fig1A source data, replicates) (SARS-CoV-2 [4]; Drug 0.01): 27 and 20 and 32 | Inhibition of SARS-CoV-2 infectious titers (Fig1A source data, replicates) (SARS-CoV-2 [4]; Drug 0.1): 40 and 53 and 50 | Inhibition of SARS-CoV-2 infectious titers (Fig1A source data, replicates) (SARS-CoV-2 [4]; Drug 1): 63 and 67 and 57 | Inhibition of SARS-CoV-2 infectious titers (Fig1A source data, replicates) (SARS-CoV-2 [4]; Drug 10): 95 and 94 and 72 | Genomic viral RNA (Fig2B source data, replicates) (SARS-CoV-2 [5]): 0.3 and 0.1 and 0.22 | Subgenomic viral RNA (Fig2B source data, replicates) (SARS-CoV-2 [5]): 0.5 and 0.45 and 0.56 | TNF-α levels in the culture supernatant (Fig1D source data, per donor) (TNF-α): 1.6 and 1.8 and 0.638 and 4.1 and 2.6 | CC50 (in vitro): 550 ± 32 µM | Cell-associated virus RNA levels in SARS-CoV-2-infected monocytes (SARS-CoV-2 [6]): reduced cell-associated virus RNA levels in a concentration-dependent manner | Cell-associated virus RNA loads, inhibition (Fig1C source data, per donor) (SARS-CoV-2 [6]; 24 h, Drug 1): 36 and 65 and 10 and 20 and 30 and 40 | Cell-associated virus RNA loads, inhibition (Fig1C source data, per donor) (SARS-CoV-2 [6]; 24 h, Drug 10): 33 and 76 and 10 and 20 and 30 and 36 | Cell-associated virus RNA loads, inhibition (Fig1C source data, per donor) (SARS-CoV-2 [6]; MOI 0.1, 24 h, Drug 0.1): 17 and 66 and 24 and 12 and 9 and 25 | CC50 (Calu-3 cells): 530 ± 65 µM

CC(C)C(=O)OC[C@H]1O[C@@H](n2ccc(NO)nc2=O)[C@H](O)[C@@H]1O [MK-4482, molnupiravir, reference compound]
EC99 mean (SARS-CoV-2 [3]; Calu-3 cells, alone or with nsp14 inhibitor at the concentration of the label, unit not given): 9 | EC50 (SARS-CoV-2 [3]): 0.8 µM | EC90 (SARS-CoV-2 [3]; Severe acute respiratory syndrome coronavirus 2, Calu-3, read-out: EC90 mean): 7 µM | EC50 (SARS-CoV-2 [4]; [8]): 720 ± 120 nM | EC50 (SARS-CoV-2 [4]; [9]): 20 ± 8 nM | Inhibition of SARS-CoV-2 infectious titers (Fig1A source data, replicates) (SARS-CoV-2 [4]; [10]): 3 and 4 and 5 | Inhibition of SARS-CoV-2 infectious titers (Fig1A source data, replicates) (SARS-CoV-2 [4]; Drug 0.01): 13 and 6 and 16 | Inhibition of SARS-CoV-2 infectious titers (Fig1A source data, replicates) (SARS-CoV-2 [4]; Drug 0.1): 48 and 30 and 35 | Inhibition of SARS-CoV-2 infectious titers (Fig1A source data, replicates) (SARS-CoV-2 [4]; Drug 1): 71 and 60 and 50 | Inhibition of SARS-CoV-2 infectious titers (Fig1A source data, replicates) (SARS-CoV-2 [4]; Drug 10): 100 and 99 and 95 | CC50 (in vitro): 58 ± 18 µM | Monocyte viability (Human primary monocytes): drastically reduced | Cell-associated virus RNA levels in SARS-CoV-2-infected monocytes (SARS-CoV-2 [6]): relatively low activity | Cell-associated virus RNA loads, inhibition (Fig1C source data, per donor) (SARS-CoV-2 [6]; 24 h, Drug 1): 25 (2×) and 23 | Cell-associated virus RNA loads, inhibition (Fig1C source data, per donor) (SARS-CoV-2 [6]; 24 h, Drug 10): 1 | Cell-associated virus RNA loads, inhibition (Fig1C source data, per donor) (SARS-CoV-2 [6]; MOI 0.1, 24 h, Drug 0.1): 12 (2×) and 18 | CC50 (Calu-3 cells): 53 ± 12 µM
